Experiment [1] deals with CD8-MerTK in Ba/F3-CDM cells. As to the kind of experiment: In cell MER kinase assay, Ba/F3-CDM cell proliferation without IL-3 (Celltiter-Glo). To be noted: 48 hours compound treatment, read-out: Cell growth inhibition (GI50). The class given is cell-based, murine. In short, it runs like this: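 Ba/F3 cells, IL-3-dependent, transfected with CD8-MerTK and grown without IL-3 in DMEM/10% FBS. IL-3-supplemented Ba/F3 cells run in parallel as a cytotoxicity control.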
A general note: In ATP-based viability assays light output follows the ATP content of the culture.

Experiment [2] deals with human c-MER catalytic domain (Homo sapiens (Human), UniProt Q12866). In words: LanthaScreen TR-FRET kinase assay, c-MER. As to conditions: read-out: Mer TK inhibition (IC50); Biochemical IC50, TR-FRET, 10 uM ATP. (Time-resolved FRET reads energy transfer from a long-lived donor to a nearby acceptor.)
Sequence of human c-MER catalytic domain (Q12866 587-858): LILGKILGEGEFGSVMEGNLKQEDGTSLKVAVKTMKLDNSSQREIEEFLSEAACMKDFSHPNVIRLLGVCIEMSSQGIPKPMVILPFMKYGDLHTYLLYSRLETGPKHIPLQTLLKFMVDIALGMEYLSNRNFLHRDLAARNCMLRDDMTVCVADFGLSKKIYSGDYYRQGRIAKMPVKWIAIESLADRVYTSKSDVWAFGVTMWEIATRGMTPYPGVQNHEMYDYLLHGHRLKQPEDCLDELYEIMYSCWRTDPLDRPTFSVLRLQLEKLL

The term GI50 denotes the concentration that inhibits growth by half. The term IC50 denotes the concentration that gives 50% inhibition. In the case of `CCc1cc(CO[C@H]2CNC[C@@H]2NC(=O)c2cc(-c3ccc(CC#N)cc3)cnc2N)ccc1C` [Example 411, 2-amino-5-(4-(cyanomethyl)phenyl)-N-((3S,4S)-4-((3-ethyl-4-methylbenzyl)oxy)pyrrolidin-3-yl)nicotinamide], the GI50 in experiment [1] fell in the range of 100 to 500 nM. Further, the 50% inhibitory concentration (IC50) in experiment [2] was less than 10 nM.

Regarding `CN1CCN(Cc2ccc(-c3ccc(CO[C@H]4CCC[C@@H]4NC(=O)c4cc(-c5ccc(F)c(F)c5)cnc4N)cc3)cc2)CC1` [Example 364], the GI50 in experiment [1] is less than 100 nM. The IC50 in experiment [2] was less than 10 nM.

For the compound `Cn1cc(-c2cnc(N)c(C(=O)N[C@H]3CCC[C@@H]3OCc3ccc(C#CCCO)cc3)c2)cn1` [Example 249, 2-amino-N-((1S,2S)-2-((4-(4-hydroxybut-1-yn-1-yl)benzyl)oxy)-cyclopentyl)-5-(1-methyl-1H-pyrazol-4-yl)nicotinamide], in experiment [1], the GI50 is more than 1000 nM. Also, the IC50 in experiment [2] is less than 10 nM.

As for `CCc1cc(CO[C@H]2CNC[C@@H]2NC(=O)c2cc(-c3ccc(NS(C)(=O)=O)cc3)cnc2N)ccc1C` [Example 401, 2-amino-N-((3S,4S)-4-((3-ethyl-4-methylbenzyl)oxy)pyrrolidin-3-yl)-5-(4-(methylsulfonamido)phenyl)nicotinamide], the GI50 in experiment [1] was more than 1000 nM. In experiment [2], the IC50 was less than 10 nM.

For `CCc1cc(CO[C@H]2CN(C)C[C@@H]2NC(=O)c2cc(-c3cnn(C)c3)cnc2N)ccc1C` [Example 426, 2-amino-N-((3S,4S)-4-((3-ethyl-4-methylbenzyl)oxy)-1-methylpyrrolidin-3-yl)-5-(1-methyl-1H-pyrazol-4-yl)nicotinamide], the GI50 in experiment [1] was 500 to 1000 nM. Further, in experiment [2], the concentration for half-maximal inhibition (IC50) is less than 10 nM.

For `CCc1cc(CO[C@H]2CNC[C@@H]2NC(=O)c2cc(-c3cnn(C4CCN(C)CC4)c3)cnc2N)ccc1C` [Example 413, 2-amino-N-((3S,4S)-4-((3-ethyl-4-methylbenzyl)oxy)pyrrolidin-3-yl)-5-(1-(1-methylpiperidin-4-yl)-1H-pyrazol-4-yl)nicotinamide], the GI50 in experiment [1] was 500 to 1000 nM. Also, the 50% inhibitory concentration (IC50) in experiment [2] was less than 10 nM.

Turning to `CN1CCN(CCc2ccc(-c3ccc(CO[C@H]4CCC[C@@H]4NC(=O)c4cc(-c5cnn(C)c5)cnc4N)cc3)cc2)CC1` [Example 161, 2-amino-5-(1-methyl-1H-pyrazol-4-yl)-N-((1S,2S)-2-((4′-(2-(4-methylpiperazin-1-yl)ethyl)-[1,1′-biphenyl]-4-yl)methoxy)cyclopentyl)nicotinamide], the GI50 in experiment [1] is less than 100 nM. For the same compound, the IC50 in experiment [2] is less than 10 nM.

For `CN1CCN(Cc2ccc(-c3ccc(CO[C@H]4CCC[C@@H]4NC(=O)c4cc(-c5cnn(C)c5)cnc4N)cc3)cc2F)CC1` [Example 195, 2-amino-N-((1S,2S)-2-((3′-fluoro-4′-((4-methylpiperazin-1-yl)-methyl)-[1,1′-biphenyl]-4-yl)methoxy)cyclopentyl)-5-(1-methyl-1H-pyrazol-4-yl)-nicotinamide], the 50% growth inhibitory concentration (GI50) in experiment [1] was less than 100 nM. Also, the IC50 in experiment [2] is less than 10 nM.

On to `CN1CCN(Cc2ccc(-c3ccc(CO[C@H]4CCC[C@@H]4NC(=O)c4cc(-c5cnn(C)c5)cnc4N)cc3)cc2O)CC1` [Example 199, 2-amino-N-((1S,2S)-2-((3′-hydroxy-4′-((4-methylpiperazin-1-yl)methyl)-[1,1′-biphenyl]-4-yl)methoxy)cyclopentyl)-5-(1-methyl-1H-pyrazol-4-yl)nicotinamide], for which the GI50 in experiment [1] was less than 100 nM. Also, in experiment [2], the IC50 was less than 10 nM.

`CCc1cc(CO[C@H]2CNC[C@@H]2NC(=O)c2cc(-c3ccc(CN4CCN(C)CC4)cc3)cnc2N)ccc1C` [Example 390, 2-amino-N-((3S,4S)-4-((3-ethyl-4-methylbenzyl)oxy)pyrrolidin-3-yl)-5-(4-((4-methylpiperazin-1-yl)methyl)phenyl)nicotinamide]: the GI50 in experiment [1] fell in the range of 100 to 500 nM. Moreover, in experiment [2], the IC50 is less than 10 nM.

These data come from patent publication US10125118B2, “Heteroaryl compounds and their use as therapeutic drugs” (Dong-A Socio Holdings Co., Ltd., priority 2015, dated 2018).
